Data from patent publication US20220009920A1 (GB005, Inc., priority 2020, published 2022).

Legend:
Test in all cases: Large panel kinase profiling
Type in all cases: biochemical
Conditions in all cases: 1 μM test article, 1 mM ATP
BRSK2 = biological target: T1, BRSK2 (Homo sapiens, UniProt Q8IWQ3)
T1 sequence (Q8IWQ3 1-736): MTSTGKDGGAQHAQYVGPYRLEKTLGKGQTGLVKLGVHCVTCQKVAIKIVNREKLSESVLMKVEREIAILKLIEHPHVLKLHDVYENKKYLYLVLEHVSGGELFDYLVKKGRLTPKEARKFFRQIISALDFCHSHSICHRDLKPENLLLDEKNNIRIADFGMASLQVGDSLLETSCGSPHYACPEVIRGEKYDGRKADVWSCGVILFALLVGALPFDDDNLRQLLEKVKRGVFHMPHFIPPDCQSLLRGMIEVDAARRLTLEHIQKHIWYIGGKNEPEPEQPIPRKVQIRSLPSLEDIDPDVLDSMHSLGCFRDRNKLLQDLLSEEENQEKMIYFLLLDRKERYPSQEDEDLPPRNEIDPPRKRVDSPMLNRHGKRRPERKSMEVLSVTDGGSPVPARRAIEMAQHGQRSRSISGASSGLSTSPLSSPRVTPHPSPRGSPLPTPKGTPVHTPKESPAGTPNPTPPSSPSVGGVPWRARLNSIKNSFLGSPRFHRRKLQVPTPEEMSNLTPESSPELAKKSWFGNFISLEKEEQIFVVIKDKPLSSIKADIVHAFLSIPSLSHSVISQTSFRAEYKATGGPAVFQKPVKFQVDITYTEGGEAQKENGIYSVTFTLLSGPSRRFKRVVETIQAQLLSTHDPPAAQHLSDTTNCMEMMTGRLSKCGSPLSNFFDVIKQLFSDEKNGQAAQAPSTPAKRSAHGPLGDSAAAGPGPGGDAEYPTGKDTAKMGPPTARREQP
In short: (§1)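 Reactions contain 1 mM ATP and 1 μM test article; the CSox peptide sensor reports phosphorylation as fluorescence gain. Temperature is held at 30° C. while signal (360 nm excitation, 485 nm emission) is recorded every 1 min.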

CDK1/E1 = biological target: T2, CDK1/E1 (Homo sapiens, UniProt P06493)
T2 construct: AssayQuant Technologies, Inc. (ran the panel)
T2 sequence (P06493 whole entry, species assumed): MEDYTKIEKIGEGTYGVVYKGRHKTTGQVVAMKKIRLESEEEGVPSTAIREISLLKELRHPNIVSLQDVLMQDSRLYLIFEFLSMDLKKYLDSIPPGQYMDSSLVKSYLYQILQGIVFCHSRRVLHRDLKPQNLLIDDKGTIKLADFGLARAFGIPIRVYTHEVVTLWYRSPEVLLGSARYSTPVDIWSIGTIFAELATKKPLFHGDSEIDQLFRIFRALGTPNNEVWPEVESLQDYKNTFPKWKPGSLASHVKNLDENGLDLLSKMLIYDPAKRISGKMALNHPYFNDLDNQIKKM
T2 sequence (P24864 whole entry partner, species assumed): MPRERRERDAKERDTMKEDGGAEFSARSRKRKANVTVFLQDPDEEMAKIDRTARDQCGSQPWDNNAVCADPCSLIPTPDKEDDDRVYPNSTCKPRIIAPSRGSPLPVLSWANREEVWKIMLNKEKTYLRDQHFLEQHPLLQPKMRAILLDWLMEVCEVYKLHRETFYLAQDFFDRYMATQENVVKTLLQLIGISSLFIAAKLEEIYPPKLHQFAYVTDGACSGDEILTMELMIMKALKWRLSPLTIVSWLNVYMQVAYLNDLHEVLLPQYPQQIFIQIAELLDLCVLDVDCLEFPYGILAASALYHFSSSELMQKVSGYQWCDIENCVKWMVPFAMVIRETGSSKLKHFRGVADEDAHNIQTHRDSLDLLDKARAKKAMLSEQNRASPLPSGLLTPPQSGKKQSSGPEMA
In short: as §1

JAK1(JH1) = biological target: T3, JAK1(JH1) (Homo sapiens, UniProt P23458)
T3 construct: JAK1(JH1)
T3 sequence (P23458 875-1153 limits assumed, species assumed): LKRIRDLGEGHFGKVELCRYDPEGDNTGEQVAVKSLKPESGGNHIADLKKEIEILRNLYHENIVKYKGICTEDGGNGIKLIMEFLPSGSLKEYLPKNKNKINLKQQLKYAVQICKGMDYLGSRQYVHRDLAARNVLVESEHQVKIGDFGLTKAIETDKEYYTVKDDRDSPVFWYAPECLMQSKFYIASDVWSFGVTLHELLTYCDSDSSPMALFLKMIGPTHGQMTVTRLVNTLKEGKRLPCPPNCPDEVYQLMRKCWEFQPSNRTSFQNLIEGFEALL
In short: as §1

LYNB = LYNB (Homo sapiens, UniProt P07948)
Chain of LYNB (P07948 1-491 isoform P07948-2, species assumed): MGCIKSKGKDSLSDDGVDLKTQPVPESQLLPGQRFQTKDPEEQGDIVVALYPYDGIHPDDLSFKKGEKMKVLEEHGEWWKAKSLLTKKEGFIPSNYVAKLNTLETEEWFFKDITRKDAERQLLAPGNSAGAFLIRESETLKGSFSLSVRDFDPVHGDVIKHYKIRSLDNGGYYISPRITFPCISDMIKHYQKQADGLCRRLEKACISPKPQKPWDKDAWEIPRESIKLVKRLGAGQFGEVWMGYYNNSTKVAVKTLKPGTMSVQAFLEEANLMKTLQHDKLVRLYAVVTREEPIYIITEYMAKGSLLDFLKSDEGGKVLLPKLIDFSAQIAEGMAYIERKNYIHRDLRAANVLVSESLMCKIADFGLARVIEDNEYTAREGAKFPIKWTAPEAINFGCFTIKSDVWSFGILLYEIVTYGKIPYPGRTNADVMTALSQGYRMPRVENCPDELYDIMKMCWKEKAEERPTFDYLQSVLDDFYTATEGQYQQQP
In short: as §1

NTRK1/TRKA = biological target: T4, NTRK1/TRKA (Homo sapiens, UniProt P04629)
T4 construct: AssayQuant Technologies, Inc. (assay service)
T4 sequence (P04629 33-796): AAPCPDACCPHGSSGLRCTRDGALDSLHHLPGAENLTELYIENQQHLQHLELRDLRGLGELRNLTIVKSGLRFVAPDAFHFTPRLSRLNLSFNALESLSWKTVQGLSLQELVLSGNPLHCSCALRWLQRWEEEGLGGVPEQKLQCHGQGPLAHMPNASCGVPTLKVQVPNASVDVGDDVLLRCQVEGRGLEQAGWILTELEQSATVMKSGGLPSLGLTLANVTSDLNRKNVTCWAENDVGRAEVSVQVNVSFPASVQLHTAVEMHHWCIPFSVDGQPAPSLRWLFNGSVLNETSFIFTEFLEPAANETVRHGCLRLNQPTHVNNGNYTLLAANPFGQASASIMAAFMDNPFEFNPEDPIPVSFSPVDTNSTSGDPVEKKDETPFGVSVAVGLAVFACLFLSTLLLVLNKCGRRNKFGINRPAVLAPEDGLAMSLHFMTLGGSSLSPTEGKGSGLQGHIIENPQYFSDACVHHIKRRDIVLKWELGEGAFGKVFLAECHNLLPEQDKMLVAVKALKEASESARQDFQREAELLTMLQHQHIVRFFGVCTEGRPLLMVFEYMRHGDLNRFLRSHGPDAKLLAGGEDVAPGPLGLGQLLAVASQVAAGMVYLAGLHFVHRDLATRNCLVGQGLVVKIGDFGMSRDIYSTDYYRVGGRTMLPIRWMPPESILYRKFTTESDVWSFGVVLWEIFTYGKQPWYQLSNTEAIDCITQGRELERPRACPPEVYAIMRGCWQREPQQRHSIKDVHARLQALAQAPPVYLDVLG
In short: as §1

NUAK1 = biological target: T5, NUAK1 (Homo sapiens, UniProt O60285)
T5 sequence (O60285 1-661): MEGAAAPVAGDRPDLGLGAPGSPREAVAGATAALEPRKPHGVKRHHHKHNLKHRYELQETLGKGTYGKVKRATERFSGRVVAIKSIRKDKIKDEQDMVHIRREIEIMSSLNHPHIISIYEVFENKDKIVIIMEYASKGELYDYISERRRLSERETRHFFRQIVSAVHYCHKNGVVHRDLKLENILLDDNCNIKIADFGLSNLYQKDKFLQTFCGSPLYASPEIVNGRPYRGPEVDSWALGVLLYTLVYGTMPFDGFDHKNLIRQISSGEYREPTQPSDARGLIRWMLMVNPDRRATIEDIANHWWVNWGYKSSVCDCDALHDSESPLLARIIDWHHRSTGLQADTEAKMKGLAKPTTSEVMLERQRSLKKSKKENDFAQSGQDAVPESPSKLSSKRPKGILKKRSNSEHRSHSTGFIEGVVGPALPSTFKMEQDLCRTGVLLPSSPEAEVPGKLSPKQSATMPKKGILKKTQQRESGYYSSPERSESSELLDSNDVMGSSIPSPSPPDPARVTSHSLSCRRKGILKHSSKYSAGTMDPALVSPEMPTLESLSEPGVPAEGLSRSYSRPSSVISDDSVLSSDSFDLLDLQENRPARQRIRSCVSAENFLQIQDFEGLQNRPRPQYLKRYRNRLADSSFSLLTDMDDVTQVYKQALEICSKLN
In short: as §1

ROCK2 = ROCK2 (Homo sapiens, UniProt O75116)
Chain of ROCK2 (O75116 whole entry, species assumed): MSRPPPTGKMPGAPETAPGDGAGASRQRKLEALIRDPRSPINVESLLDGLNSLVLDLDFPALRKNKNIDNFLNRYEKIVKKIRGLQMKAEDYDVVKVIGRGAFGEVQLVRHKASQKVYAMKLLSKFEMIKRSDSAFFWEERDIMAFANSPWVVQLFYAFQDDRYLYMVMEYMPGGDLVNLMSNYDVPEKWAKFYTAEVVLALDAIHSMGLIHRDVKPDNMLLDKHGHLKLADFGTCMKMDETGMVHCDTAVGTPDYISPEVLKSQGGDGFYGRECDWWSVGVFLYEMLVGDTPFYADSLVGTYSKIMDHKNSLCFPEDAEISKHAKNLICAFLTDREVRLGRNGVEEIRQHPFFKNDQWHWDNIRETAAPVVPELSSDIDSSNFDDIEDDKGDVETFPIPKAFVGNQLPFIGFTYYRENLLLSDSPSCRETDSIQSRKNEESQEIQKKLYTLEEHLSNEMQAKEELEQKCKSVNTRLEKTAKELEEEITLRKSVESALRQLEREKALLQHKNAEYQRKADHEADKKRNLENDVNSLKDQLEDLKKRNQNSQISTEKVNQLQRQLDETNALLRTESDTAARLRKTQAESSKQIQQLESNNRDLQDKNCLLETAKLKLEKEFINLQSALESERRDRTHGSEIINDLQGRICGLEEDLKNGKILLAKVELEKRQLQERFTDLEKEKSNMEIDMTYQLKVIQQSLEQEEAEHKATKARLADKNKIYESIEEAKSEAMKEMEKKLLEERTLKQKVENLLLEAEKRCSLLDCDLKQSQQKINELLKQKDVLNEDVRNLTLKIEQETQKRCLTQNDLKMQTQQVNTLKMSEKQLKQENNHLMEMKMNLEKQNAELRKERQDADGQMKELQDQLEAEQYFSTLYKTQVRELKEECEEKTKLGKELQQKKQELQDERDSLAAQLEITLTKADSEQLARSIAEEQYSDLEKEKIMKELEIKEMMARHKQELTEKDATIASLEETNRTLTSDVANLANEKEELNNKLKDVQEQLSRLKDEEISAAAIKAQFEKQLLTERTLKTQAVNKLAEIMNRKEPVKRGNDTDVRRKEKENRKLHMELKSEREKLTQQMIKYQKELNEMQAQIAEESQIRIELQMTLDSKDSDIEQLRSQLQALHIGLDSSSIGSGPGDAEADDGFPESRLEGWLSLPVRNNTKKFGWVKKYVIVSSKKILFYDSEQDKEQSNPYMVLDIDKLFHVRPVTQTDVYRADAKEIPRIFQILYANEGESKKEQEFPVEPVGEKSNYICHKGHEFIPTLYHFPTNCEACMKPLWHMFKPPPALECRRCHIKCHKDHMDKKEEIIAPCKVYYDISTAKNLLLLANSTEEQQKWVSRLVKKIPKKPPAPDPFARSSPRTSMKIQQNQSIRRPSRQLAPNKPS
In short: as §1

SGK1 = biological target: T6, SGK1 (Homo sapiens, UniProt O00141)
T6 construct: AssayQuant Technologies, Inc. (contract assay)
T6 sequence (O00141 1-431): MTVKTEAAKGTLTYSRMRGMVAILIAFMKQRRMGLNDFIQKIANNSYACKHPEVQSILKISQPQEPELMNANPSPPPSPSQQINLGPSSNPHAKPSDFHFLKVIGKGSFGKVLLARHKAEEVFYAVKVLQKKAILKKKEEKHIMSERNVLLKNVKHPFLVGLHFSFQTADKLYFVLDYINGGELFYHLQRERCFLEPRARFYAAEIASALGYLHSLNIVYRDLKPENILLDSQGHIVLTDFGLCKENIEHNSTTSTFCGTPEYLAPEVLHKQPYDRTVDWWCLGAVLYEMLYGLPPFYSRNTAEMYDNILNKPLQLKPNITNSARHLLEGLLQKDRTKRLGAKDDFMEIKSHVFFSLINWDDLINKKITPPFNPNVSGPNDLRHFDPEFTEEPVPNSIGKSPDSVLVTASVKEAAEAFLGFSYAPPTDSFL
In short: as §1

| Structure (SMILES) | inhibition at 1 µM (BRSK2) | inhibition at 1 µM (CDK1/E1) | inhibition at 1 µM (JAK1(JH1)) | inhibition at 1 µM (LYNB) | inhibition at 1 µM (NTRK1/TRKA) | inhibition at 1 µM (NUAK1) | inhibition at 1 µM (ROCK2) | inhibition at 1 µM (SGK1) |
| --- | --- | --- | --- | --- | --- | --- | --- | --- |
| C=CC(=O)N1CCCC(c2c(F)cc(C(N)=O)c3[nH]c4c(c23)CCCCC4)C1 (single isomer, unassigned) [Compound 5-6] | -31.2% | -3.6% | 1.3% | 8.9% | -5% | 3.8% | -28.3% | 4.3% |
| C=CC(=O)N1CCC[C@@H](c2c(F)cc(C(N)=O)c3[nH]c4c(c23)CCC4)C1 [Compound 10-2, (S)-8-(1-acryloylpiperidin-3-yl)-7-fluoro-1,2,3,4-tetrahydrocyclo-penta[b]indole-5-carboxamide] | 1.8% | -10.6% | 1.9% | 23.2% | 21.6% | -9.3% | 21.2% | 14.8% |
| C=CC(=O)N1CCC[C@@H](c2c(F)cc(C(N)=O)c3[nH]c4c(c23)CC2(CC4)CC2)C1 [Compound 6-2, (S)-5-(1-acryloylpiperidin-3-yl)-6-fluoro-1,2,4,9-tetrahydrospiro[carbazole-3,1′-cyclopropane]-8-carboxamide] | -5.7% | -7% | 25.6% | 28.9% | 19.6% | 13.2% | 0.8% | 10.7% |
